The values below come from US20050014743A1, “Combination of an NMDA receptor antagonist and a selective serotonin reuptake inhibitor for the treatment of depression and other mood disorders” (Forest Laboratories, Inc., priority 2003, published 2005).

“Also recorded” adds a separate entry of the source.

Test [1] deals with C57/B1 mice. The test can be described thus: mouse tail suspension test (TST). Type of test: in vivo. The following applies: for immobility: given with vehicle; for duration of immobility: monotherapy, doses 5-20 mg/kg IP.
Test [2] concerns C57/B1 mice. The test can be described thus: locomotor activity test (actometers, 6 min). Type of test: in vivo, mouse.
The subject of a further test is 5-HT3 receptor. The following applies: cited from earlier work; for inhibition of 5HT3-mediated current: memantine: native N1E-115 and heterologous HEK-293 cells.
For the next test, the target named is T1, NMDA receptor (Rattus norvegicus, UniProt P35439).
T1 construct: NMDA receptor-mediated currents (in rat hippocampal slices); from tissue; host or cells: rat hippocampal slices
The settings on record: rat hippocampal slices; cited from earlier work.

Regarding `CC1(C)CC(C)(C)CC(C)(N)C1` [NER, 1-amino-1,3,3,5,5-pentamethylcyclohexane], the immobility entry in the test on C57/B1 mice [1] (2.5 mg/kg IP, 2.5 mg/kg) is on record as “increased immobility; also recorded: without effect on immobility time”; with C57/B1 mice [1] (20 mg/kg IP, 20 mg/kg), “decreased immobility”. Also, the duration of immobility entry in the test with C57/B1 mice [1] is on record as “decreased the duration of immobility”. Also, the locomotor activity entry in the test on C57/B1 mice [2] (given with vehicle (combination study), 20 mg/kg IP) is given as “increased locomotor activity”; with C57/B1 mice [2] (monotherapy, doses 5-20 mg/kg IP), “increased locomotor activity; also recorded: consistent locomotor stimulation”. Moreover, the “inhibition of 5HT3-mediated current” value in the test with 5-HT3 receptor is “inhibit”.

For `COc1ccc(C(CN(C)C)C2(O)CCCCC2)cc1` (stereo not shown) [VEN, venlafaxine], the immobility entry in the test on C57/B1 mice [1] (5 mg/kg IP) and with C57/B1 mice [1] (20 mg/kg IP) was “decreased immobility” throughout. The duration of immobility entry in the test with C57/B1 mice [1] was “decrease in the duration of immobility”. Also, the locomotor activity result in the test on C57/B1 mice [2] (given with vehicle (combination study), 20 mg/kg IP, 20 mg/kg) was “increased locomotor activity; also recorded: also observed for the dose of 20 mg/kg in one of two studies”; in the test with C57/B1 mice [2] (given with vehicle, 5 mg/kg IP, 5 mg/kg), “without effect”; in the test with C57/B1 mice [2] (monotherapy, 40 mg/kg IP, 40 mg/kg) it was “increased it; also recorded: stimulated locomotion”.

`CC12CC3CC(C)(C1)CC(N)(C3)C2` [memantine, 1-amino-3,5-dimethyl adamantane]: the “affinity for 5HT3-mediated current relative to NMDA receptor-mediated currents” value in the test on 5-HT3 receptor (N1E-115 / HEK-293 cells vs rat hippocampal slices) is “approximately equal affinity”. Moreover, the “inhibition of 5HT3-mediated current” value in the test on 5-HT3 receptor is “inhibit”. On NMDA receptor, the “inhibition of NMDA receptor-mediated currents” value is listed as “inhibit”.

`CNCCC(Oc1ccc(C(F)(F)F)cc1)c1ccccc1` (stereo not shown) [FLU, fluoxetine]: the immobility entry with C57/B1 mice [1] (20 mg/kg IP) is recorded as “decreased immobility”. Further, the duration of immobility entry with C57/B1 mice [1] is “decrease in the duration of immobility”. Besides, the locomotor activity result with C57/B1 mice [2] (mouse, in vivo) is on record as “did not change locomotor activity; also recorded: generally did not affect locomotor activity”.

`CN(C)CCCN1c2ccccc2CCc2ccccc21` [IMI, imipramine]: in the test on C57/B1 mice [1] (20 mg/kg IP), the immobility entry was “decreased immobility”. Besides, the duration of immobility result with C57/B1 mice [1] was “decrease in the duration of immobility”. Further, the locomotor activity result in the test with C57/B1 mice [2] (mouse, in vivo) is given as “decreased it; also recorded: decreased locomotor activity”; with C57/B1 mice [2] (mouse, in vivo, ip, 20 mg/kg) it was “decreased locomotor activity”.
